According to patent US8772029B2, “Modulation of oocyte meiotic progression and oocyte activation” (Northwestern University, priority 2011, dated 2014):
“Also recorded” adds a separate entry of the source.

Key:
MPF activity = assay: Histone H1 kinase assay on single oocytes/eggs (MPF activity); assay type: cell-based, mouse
Procedure: (§1) Histone H1 and myelin basic protein (MBP) dual kinase assays were performed as previously described (Svoboda et al., 2000). Dried gels were exposed to Kodak BIOMAX MR films for 12 to 72 hours at −80° C. using Kodak intensifying screens; films were developed, scanned, and analyzed using ImageJ software. Assays were performed on single oocytes, and densitometric analysis is expressed relative to levels in control eggs.

MII eggs = conditions: literature (Kim et al 2011, Suzuki et al 2010); cited from earlier work
MAPK = assay: Myelin basic protein (MBP) kinase assay on single eggs (MAPK activity); assay type: cell-based, mouse; conditions: in vivo ovulated MII eggs, KSOM with 10 μM TPEN, 1 to 8 hours
Procedure: as §1

[1] = system: zinc-insufficient oocytes; assay: Spindle phenotype scoring after IVM in TPEN with proteasome inhibitor MG132 added after 10 h; assay type: cell-based, mouse; conditions: TPEN 16 h without MG132; n=13
Procedure: For IVM studies, immature female CD1 mice (17 to 21 day old) were injected with 5IU equine chorionic gonadotropin (eCG) (Calbiochem, La Jolla, CA) in 100 μL sterile phosphate-buffered saline (PBS), intraperitoneally. After 44 to 48 hours, mice were anesthetized using isoflurane and euthanized by cervical dislocation. Dissected ovaries were placed in Leibovitz L-15 medium containing 1% FBS (L-15/FBS) and 0.2mM 3-isobutyl-1-methylxanthine (IBMX), and large antral follicles were punctured using 28 gauge needles to release cumulus oocyte complexes (COCs). COCs were washed through several drops of culture medium consisting of Minimum Essential Medium (MEM)-alpha with GLUTAMAX supplemented with 10% FBS, 1.5IU/mL human chorionic gonadotropin (hCG), and 5ng/mL epidermal growth factor and placed in culture medium with or without 10 μM N,N,N′,N′-tetrakis(2-pyridylmethyl) ethylenediamine (TPEN). In some experiments Z-Leu-Leu-Leu-al (MG132) was added to culture medium at 20 μM. COCs were cultured in drops of pre-equilibrated medium covered with embryo quality mineral oil at 37° C. in 5% CO2 with a humid environment. Ovulated MII eggs were collected from 4 to 6 week old mice primed with 5IU PMSG followed 48 h later by 5IU hCG. Oviducts were dissected into L-15/FBS, and eggs were removed and treated with 0.03% (w/v) hyaluronidase to remove cumulus cells. Eggs were washed and cultured in potassium simplex optimized medium (KSOM) (Millipore, Billerica, MA) covered with embryo quality mineral oil at 37° C. in 5% CO2.
Oocytes were denuded of cumulus cells and fixed in a microtubule stabilizing buffer (Ibanez et al., 2005) containing 2% formaldehyde and 1% Triton X-100 for 30 min at 37° C. Oocytes were washed and blocked in PBS containing 0.1M glycine, 3mg/mL BSA, 0.01% Tween 20, and 0.01% sodium azide for at least 1 h and were stored in blocking solution at 4° C. for up to 2 weeks. Oocytes were incubated with anti-tubulin antibody (1:100) for 1 h at 37C. followed by three washes in blocking solution. They were then incubated for 1 h in AlexaFluor-488 conjugated anti-mouse secondary antibody (5μg/mL) and rhodamine-phalloidin (2U/mL), washed three additional times, and mounted in VECTASHIELD with DAPI. Microscopy was performed using a Leica SP5 inverted laser-scanning confocal microscope with a 63x oil immersion objective (Leica Microsystems, Heidelberg, Germany). Images were processed using LAS AF software (Leica Microsystems).
It has been previously shown that zinc-insufficient oocytes fail to increase MPF activity following the first meiotic division and have low CCNB1 protein levels (Bernhardt et al., 2010). In order to determine whether this decrease in CCNB1 is the major cause of the observed meiotic arrest phenotype, it was tested whether increasing CCNB1 would be sufficient to rescue MII entry in zinc-insufficient oocytes by inhibiting the proteasome at the end of the MI-MII transition, thereby halting CCNB1 degradation. Experimental oocytes were cultured for 10 hours in TPEN-containing medium and were then transferred into medium containing TPEN as well as the proteasome inhibitor Z-Leu-Leu-Leu-al (MG132) at 20 μM concentration. MG132 was added after first polar body extrusion, because earlier addition would result in MI arrest due to failure to degrade APC/C targets that prevent cell division. Oocytes were cultured for an additional 6 h in the presence of MG132 to allow time for CCNB1 reaccumulation, for a total 16 h IVM culture period. Proteasome inhibition led to a partial rescue of the zinc insufficiency phenotype. 69% of treated oocytes formed spindle-like structures, and none were in telophase I arrest, despite being cultured in the presence of TPEN for the entire culture period (FIG. 2, A; Table 2).
A majority of zinc-insufficient oocytes treated with MG132 following the first meiotic division transition progress beyond telophase-I arrest and form MII spindle-like structures. […]

CCNB1 = assay: Western blot for CCNB1 in oocytes; assay type: cell-based, mouse; conditions: oocytes cultured with 10 μM TPEN during the MI-MII transition
Procedure: Western blotting was performed essentially as previously described (Bernhardt et al., 2010). Briefly, 15 to 50 cumulus-denuded oocytes were transferred in a minimal amount of medium to microcentrifuge tubes and immediately lysed in 8 μL of 1x SDSPAGE Sample Buffer (Laemmli, 1970). SDS-PAGE gels were run using the Invitrogen NuPAGE system and transferred to Immobilon-P PVDF membranes (Millipore, Billerica, MA). Blocking and antibody incubations were in 2% w/v ECL Advanced Blocking Reagent (Amersham) in TBS-T (20mM Tris, pH7.4, 137mM NaC1, 0.1% Tween20 v/v). Anti-CCNB1antibody was diluted 1:500, anti-FBXO43 was used at 1:1000 dilution, and anti-tubulin antibody was used at 1:10,000. HRP-conjugated secondary antibodies were diluted 1:10,000. Detection was performed using Amersham ECL Advanced detection reagent. BIOMAX MR films (Kodak, Rochester, NY) were exposed and developed, or an Alpha-Innotech (San Learndo, CA) MultiImage II system was used.

GV oocytes = assay: TPEN treatment of PDE-inhibitor arrested GV oocytes; assay type: cell-based
Description: In certain embodiments, zinc modulation is useful for overcoming earlier meiotic arrests. Normally, treatment of GV stage oocytes with broad-spectrum or PDE3-specific phosphodiesterase (PDE) inhibitors results in maintenance of GV arrest due to elevated cAMP levels. […] As such, limiting zinc availability could also be used to overcome GV arrest and allow progression through GVBD in clinical cases of GV arrest. The methods of the present invention are also useful as a secondary treatment for oocytes that remain GV arrested following conventional in vitro maturation, and could be of particular value for use in conjunction with in vitro follicle culture systems currently being developed for use in fertility preservation programs for patients undergoing fertility-threatening cancer treatments, in which methods for overcoming GV arrest are necessary (Xu et al 2006).

## c1ccc(CN(CCN(Cc2ccccn2)Cc2ccccn2)Cc2ccccn2)nc1 [TPEN, N,N,N′,N′-tetrakis(2-pyridylmethyl)ethylenediamine]
MPF activity; in vivo ovulated MII eggs, KSOM with 10 μM TPEN, 1 to 8 hours, seen as soon as 1 hour
  MPF activity (histone H1 kinase) in MII eggs: decline
MPF activity; oocytes cultured with 10 μM TPEN during the MI-MII transition (7.5 h control, 6.5 h TPEN)
  MPF activity (histone H1 kinase): low
MII eggs
  activation of MII-arrested eggs by zinc sequestration with TPEN: causes egg activation and resumption of cell cycle; also recorded: induce egg activation and embryo development
MAPK
  MAPK activity (MBP kinase) in MII eggs: did not change appreciably
[1]
  MII (aligned metaphase plate): 0%
  other spindle phenotype: 23%
  persisting midbody or chromatin mass: 0%
  spindle with chr. scattered along length: 0%
  spindle with ≦3 chr. out of place: 0%
CCNB1
  CCNB1 protein levels: low
GV oocytes; PDE-inhibitor arrested GV oocytes that resumed meiosis under TPEN
  progression to MII after transfer back to zinc replete medium: a proportion of these oocytes progress to MII
GV oocytes; oocytes held at GV stage with phosphodiesterase inhibitors, TPEN treatment
  meiotic resumption of GV-arrested oocytes: premature GV breakdown (GVBD) and meiotic progression; also recorded: premature meiotic progression and GV breakdown (GVBD)
